# How the values were obtained:
# [1] = system: VSMCs; test: Transwell insert migration assay; type: cell-based, human; details: 12-h incubation, 10^−7 M; control 48.4%
# Procedure: VSMCs (75,000 cells/200 μL) were suspended in M231 containing 1% charcoal striped FBS and either 0.1% ethanol (vehicle control) or the corresponding steroids and seeded onto insert wells (transwell filter with 12-μm pores; EMD Millipore). The inserts were then placed in 24-well plates containing 500 μL M231 with 1% charcoal striped FBS. After 12 h, cells remaining on the upper surface of the filter were removed with a cotton swab. Migrated cells were trypsinized, centrifuged, and resuspended in 200 μL of M231 medium. The cell suspensions were mixed with 200 μL 10% ethanol containing 0.4% Trypan blue dye and the live cell number was counted by Countess Automated Cell Counter (Invitrogen). See further details in SI Materials and Methods.
# Cultured VSMCs were grown in T-75 cell culture flasks in M231 (Life Technologies) with smooth muscle growth supplement (Life Technologies) with 100 U/mL penicillin, 100 μg/mL streptomycin, 0.25 μg/mL fungizone. Confluent VSMCs were washed twice with 1×PBS to remove residual serum, and then trypsinized, resuspended (75,000 cells per 200 μL per well) in M231 with 1% charcoal striped FBS with 0.1% ethanol (vehicle, control), 10^−7 M MPA (Sigma-Aldrich), 10^−7 M ETO (Organon), or 10^−7 M P4 (Sigma-Aldrich)±rCCL2 (R&D Systems) and seeded on insert wells (transwell filter with 12-μm pores; EMD Millipore), which were then placed in 24-well plates containing 500 μL M231 with 1% charcoal striped FBS. After 12 h, cells remaining on the upper surface of the filter were removed with a cotton swab. Migrated cells attached to the lower surface of each insert or to the surface of lower wells were collected by trypsinization, followed by centrifugation and resuspension in 200 μL of M231 medium. The cell suspensions were mixed with 200 μL 10% ethanol containing 0.4% Trypan blue dye (selectively stains only dead cells blue, whereas live cells with intact cell membranes remain unstained) for 5 min. A mixture of 100 μL M231 and 100 μL 10% ethanol containing 0.4% Trypan blue dye was used as a negative control. To detect live cell numbers, 10 μL of final cell/Trypan blue dye suspension from each treatment condition was pipetted into Countess Cell Counting Chamber Slide and counted by using Countess Automated Cell Counter (Invitrogen). The counting procedure was performed in duplicate.
# [2] = system: VSMCs; test: Whole genome microarray analysis (Illumina HumanHT-12 v4) of cultured VSMCs treated with progestins; type: cell-based, human; details: VSMCs treated by ETO
# From the text: Cultured VSMCs (n=3) treated with control medium or medium containing medroxyprogesterone acetate (MPA, 10^−7 M), or etonogestrel (ETO, 10^−7 M) were processed for whole genome analyses using Illumina Human microarray kit. After qRT-PCR confirmation of several up and down regulated genes from microarray data, Ingenuity Pathway Analysis (IPA) determined relevant upstream signaling of LAPC altered gene expression. To investigate the role of genes and relevant signaling molecules identified by IPA, VSMCs (n=3) treated with MPA or ETO±1 or 10 ng/ml recombinant CCL2 (rCCL2)±STAT1 inhibitor, 5′-methyl-thioadenosine (MTA, 100 μM) were analyzed by BrdU incorporation proliferation, TUNEL based ELISA apoptosis and Transwell insert migration assays.
# VSMCs were thawed and cultured in medium 231 (M231; Life Technologies) with smooth muscle growth supplement (5% FBS; 2 ng/mL human basic fibroblast growth factor, 0.5 ng/mL human epidermal growth factor, 5 ng/mL heparin, 0.2 μg/mL insulin and 5 μg/mL BSA; Life Technologies) with 100 U/mL penicillin, 100 μg/mL streptomycin, 0.25 μg/mL fungizone. Confluent VSMCs were washed twice with 1×PBS to remove residual serum, passaged in 96-well or 6-well plates and incubated in parallel in M231 with 1% charcoal striped FBS with 0.1% ethanol (vehicle, control) or 10^−7 M MPA (Sigma-Aldrich) or 10^−7 M ETO (Organon) or 10^−7 M P4 (Sigma-Aldrich) for 15 min, 6, 48, and 72 h. VSMCs were then washed with ice-cold PBS and stored at −80° C. for further RNA and protein analyses.
# Total RNA was isolated using Qiagen miRNeasy Mini Kit (Qiagen) and RNeasy MinElute Cleanup Kit (Qiagen). The quality of isolated RNAs was confirmed using an Agilent 2100 Bioanalyzer. Microarray analysis was limited to those specimens in which RNA Integrity Number exceeded 8. Microarray processes were performed in the Keck Biotechnology Resource Laboratory at Yale University (New Haven, Conn.) using Illumina Human HT-12 v4 BeadChip (Illumina). Raw data without normalization were analyzed by GeneSpring GX12.5 software (Agilent Technologies-Silicon Genetics). Normalization was performed as described (35). Genes with a fold-change >1.25 and a P value<0.05 were considered differentially expressed. Ingenuity Pathway Analysis (IPA) software (Qiagen) explored molecular and biological networks related to differentially expressed genes.
smiles,measurement,setting,value
"C#C[C@]1(O)CC[C@H]2[C@@H]3CCC4=CC(=O)CC[C@@H]4[C@H]3C(=C)C[C@@]21CC [ETO, etonogestrel]",migration rate,[1],29.6%
same,"Fold-change, ABI gene family, member 3 (NESH) binding protein (ABI3BP)",[2],−1.636
same,"Fold-change, Actin, γ 2, smooth muscle, enteric (ACTG2)",[2],1.514
same,"Fold-change, Alcohol dehydrogenase 1A (class I), alpha polypeptide (ADH1A)",[2],1.54
same,"Fold-change, Bone morphogenetic protein 6 (BMP6)",[2],1.467
same,"Fold-change, Chemokine (C-C motif) ligand 2 (CCL2)",[2],−2.211
same,"Fold-change, Claudin 11 (oligodendrocyte transmembrane protein) (CLDN11)",[2],−1.544
same,"Fold-change, Collagen, type VIII, α 1, transcript variant 2 (COL8A1)",[2],1.44
same,"Fold-change, Complement factor B (CFB)",[2],−1.835
same,"Fold-change, Cysteine-rich secretory protein LCCL domain containing 2, (CRISPLD2)",[2],1.661
same,"Fold-change, DNA-damage regulated autophagy modulator 1 (DRAM1)",[2],−1.535
same,"Fold-change, Decorin, transcript variant A2, (DCN)",[2],1.762
same,"Fold-change, EF-hand domain family, member D1 (EFHD1)",[2],1.471
same,"Fold-change, Endoglin (Osler-Rendu-Weber syndrome 1) (ENG)",[2],−1.428
same,"Fold-change, Filaggrin (FLG)",[2],−1.59
same,"Fold-change, Growth arrest-specific 6 (GAS6)",[2],1.4661
same,"Fold-change, H19, imprinted maternally expressed transcript noncoding RNA (H19)",[2],2.497
same,"Fold-change, Hypothetical protein FLJ40504 (FLJ40504)",[2],−1.625
same,"Fold-change, Indolethylamine N-methyltransferase (INMT)",[2],1.443
same,"Fold-change, Intelectin 2 (ITLN2)",[2],1.655
same,"Fold-change, LY6/PLAUR domain containing 1, transcript variant 1 (LYPD1)",[2],−1.447
same,"Fold-change, Latexin (LXN)",[2],−1.779
same,"Fold-change, Leptin (obesity homolog, mouse) (LEP)",[2],1.602
same,"Fold-change, Mitogen-activated protein kinase kinase 2 (MAP2K2)",[2],−1.437
same,"Fold-change, PREDICTED: miscRNA (LOC399965)",[2],−1.534
same,"Fold-change, PREDICTED: similar to LYPDC1 protein (LOC100134073)",[2],−1.536
same,"Fold-change, PREDICTED: similar to filaggrin (LOC730833)",[2],−1.474
same,"Fold-change, Pleckstrin homology-like domain, family A, member 1 (PHLDA1)",[2],−1.487
same,"Fold-change, Potassium voltage-gated channel, shaker-related subfamily, 0 member 1, transcript variant2 (KCNAB1)",[2],−1.492
same,"Fold-change, Prostaglandin-endoperoxide synthase 1, transcript variant 2 (PTGS1)",[2],1.555
same,"Fold-change, RAB11 family interacting protein 1 (class I), transcript variant 3, (RAB11FIP1)",[2],1.55
same,"Fold-change, Retinoic acid receptor responder (tazarotene induced) 1, transcript variant 1, (RARRES1)",[2],−2.146
same,"Fold-change, Retinoic acid receptor responder (tazarotene induced) 1, transcript variant 2, (RARRES1)",[2],−1.809
same,"Fold-change, Superoxide dismutase 2, mitochondrial, transcript variant 2, (SOD2)",[2],−1.778
same,"Fold-change, Thioredoxin domain containing 5, transcript variant 2 (TXNDC5)",[2],1.429
same,"Fold-change, Transmembrane 4 L six family member 1 (TM4SF1)",[2],−1.467
same,"Fold-change, Transmembrane protein 119 (TMEM119)",[2],1.448
same,"Fold-change, Wingless-type MMTV integration site family, member 5A (WNT5A)",[2],1.504
same,"Fold-change, cDNA FLJ20769 fis, clone COL06674 (PREDICTED: Receptor tyrosine kinase-like orphan receptor 1)",[2],1.528
same,"Fold-change, Matrix Gla protein (MGP)",[2]; table entry 6,1.581
same,"Fold-change, Matrix Gla protein (MGP)",[2]; table entry 8,1.554

# From patent US20180078615A1, “USE OF CCL2 TO INHIBIT ABNORMAL UTERINE BLEEDING” (UNIVERSITY OF SOUTH FLORIDA, priority 2015, published 2018)
